PMC8058163 (Clinical pharmacology and therapeutics, 2020)
Read-outs that look alike come from different tables or passages of the source.

What was measured:
NTCP = target: T1, NTCP (Homo sapiens, UniProt Q14973); assay: Transporter inhibition assay, NTCP; assay type: cell-based; settings: alkaloids screened at 10 and 100 μM
T1 sequence (Q14973 1-349): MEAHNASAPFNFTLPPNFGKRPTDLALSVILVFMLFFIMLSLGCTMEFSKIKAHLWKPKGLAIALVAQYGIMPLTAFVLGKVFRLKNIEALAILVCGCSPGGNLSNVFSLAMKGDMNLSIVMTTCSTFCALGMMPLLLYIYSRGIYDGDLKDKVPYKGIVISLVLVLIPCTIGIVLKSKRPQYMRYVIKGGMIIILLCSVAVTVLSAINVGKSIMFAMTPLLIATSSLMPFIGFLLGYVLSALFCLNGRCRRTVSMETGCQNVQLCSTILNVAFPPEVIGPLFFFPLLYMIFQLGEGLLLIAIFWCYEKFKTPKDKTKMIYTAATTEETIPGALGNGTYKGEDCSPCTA

OAT3 = target: T2, OAT3 (Homo sapiens, UniProt Q8TCC7); assay: Transporter inhibition assay, OAT3
T2 sequence (Q8TCC7 1-542): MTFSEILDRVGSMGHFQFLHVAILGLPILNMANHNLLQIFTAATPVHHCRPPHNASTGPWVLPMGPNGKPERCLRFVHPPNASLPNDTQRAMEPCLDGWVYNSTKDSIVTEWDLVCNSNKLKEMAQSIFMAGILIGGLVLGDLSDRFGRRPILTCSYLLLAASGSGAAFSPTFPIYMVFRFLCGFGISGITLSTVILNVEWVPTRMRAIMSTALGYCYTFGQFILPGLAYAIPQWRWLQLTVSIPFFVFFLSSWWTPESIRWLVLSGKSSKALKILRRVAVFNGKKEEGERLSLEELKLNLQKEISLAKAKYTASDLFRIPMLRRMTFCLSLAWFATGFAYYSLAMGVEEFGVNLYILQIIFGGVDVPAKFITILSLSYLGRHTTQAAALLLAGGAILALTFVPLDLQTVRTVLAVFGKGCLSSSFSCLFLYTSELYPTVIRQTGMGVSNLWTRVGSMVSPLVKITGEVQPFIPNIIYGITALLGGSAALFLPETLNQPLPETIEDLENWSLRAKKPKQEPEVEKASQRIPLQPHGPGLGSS

BSEP = BSEP (Homo sapiens, UniProt O95342); assay: Transporter inhibition assay, BSEP
BSEP, sequence (O95342 whole entry): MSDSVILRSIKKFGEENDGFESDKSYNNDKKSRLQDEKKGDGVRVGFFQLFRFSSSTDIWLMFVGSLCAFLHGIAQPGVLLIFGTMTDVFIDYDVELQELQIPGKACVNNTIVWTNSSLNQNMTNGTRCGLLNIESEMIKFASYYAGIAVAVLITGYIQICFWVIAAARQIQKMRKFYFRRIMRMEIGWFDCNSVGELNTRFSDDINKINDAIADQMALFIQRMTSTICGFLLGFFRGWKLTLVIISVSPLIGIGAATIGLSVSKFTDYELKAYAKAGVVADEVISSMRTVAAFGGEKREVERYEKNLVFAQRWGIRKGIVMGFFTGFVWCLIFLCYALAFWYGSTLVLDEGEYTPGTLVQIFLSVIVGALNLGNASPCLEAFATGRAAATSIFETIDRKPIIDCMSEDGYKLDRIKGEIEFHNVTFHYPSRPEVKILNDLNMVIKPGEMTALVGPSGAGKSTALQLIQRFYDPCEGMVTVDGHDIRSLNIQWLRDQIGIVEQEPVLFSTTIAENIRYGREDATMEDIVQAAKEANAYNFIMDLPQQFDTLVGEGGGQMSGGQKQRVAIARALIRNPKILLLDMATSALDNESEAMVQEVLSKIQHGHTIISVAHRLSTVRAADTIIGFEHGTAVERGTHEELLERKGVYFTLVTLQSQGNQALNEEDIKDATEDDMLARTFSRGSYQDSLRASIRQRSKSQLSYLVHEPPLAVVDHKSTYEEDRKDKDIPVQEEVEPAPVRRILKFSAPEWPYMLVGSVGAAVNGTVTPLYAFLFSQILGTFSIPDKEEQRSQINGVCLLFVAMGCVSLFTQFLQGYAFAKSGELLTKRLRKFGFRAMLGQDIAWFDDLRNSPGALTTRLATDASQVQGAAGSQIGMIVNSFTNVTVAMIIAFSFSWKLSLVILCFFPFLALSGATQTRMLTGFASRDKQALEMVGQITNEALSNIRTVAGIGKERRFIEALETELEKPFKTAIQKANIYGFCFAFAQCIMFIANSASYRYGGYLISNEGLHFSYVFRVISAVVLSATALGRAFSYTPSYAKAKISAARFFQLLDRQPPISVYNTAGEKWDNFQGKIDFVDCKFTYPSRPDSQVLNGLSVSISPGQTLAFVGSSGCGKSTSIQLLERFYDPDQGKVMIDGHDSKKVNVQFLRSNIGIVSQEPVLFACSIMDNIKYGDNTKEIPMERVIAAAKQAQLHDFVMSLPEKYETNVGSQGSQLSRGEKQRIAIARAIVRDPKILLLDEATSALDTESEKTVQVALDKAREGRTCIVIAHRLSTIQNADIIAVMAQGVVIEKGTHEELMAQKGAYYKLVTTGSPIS

MRP2 = MRP2 (Homo sapiens, UniProt Q92887); assay: Transporter inhibition assay, MRP2
MRP2, sequence (Q92887 whole entry): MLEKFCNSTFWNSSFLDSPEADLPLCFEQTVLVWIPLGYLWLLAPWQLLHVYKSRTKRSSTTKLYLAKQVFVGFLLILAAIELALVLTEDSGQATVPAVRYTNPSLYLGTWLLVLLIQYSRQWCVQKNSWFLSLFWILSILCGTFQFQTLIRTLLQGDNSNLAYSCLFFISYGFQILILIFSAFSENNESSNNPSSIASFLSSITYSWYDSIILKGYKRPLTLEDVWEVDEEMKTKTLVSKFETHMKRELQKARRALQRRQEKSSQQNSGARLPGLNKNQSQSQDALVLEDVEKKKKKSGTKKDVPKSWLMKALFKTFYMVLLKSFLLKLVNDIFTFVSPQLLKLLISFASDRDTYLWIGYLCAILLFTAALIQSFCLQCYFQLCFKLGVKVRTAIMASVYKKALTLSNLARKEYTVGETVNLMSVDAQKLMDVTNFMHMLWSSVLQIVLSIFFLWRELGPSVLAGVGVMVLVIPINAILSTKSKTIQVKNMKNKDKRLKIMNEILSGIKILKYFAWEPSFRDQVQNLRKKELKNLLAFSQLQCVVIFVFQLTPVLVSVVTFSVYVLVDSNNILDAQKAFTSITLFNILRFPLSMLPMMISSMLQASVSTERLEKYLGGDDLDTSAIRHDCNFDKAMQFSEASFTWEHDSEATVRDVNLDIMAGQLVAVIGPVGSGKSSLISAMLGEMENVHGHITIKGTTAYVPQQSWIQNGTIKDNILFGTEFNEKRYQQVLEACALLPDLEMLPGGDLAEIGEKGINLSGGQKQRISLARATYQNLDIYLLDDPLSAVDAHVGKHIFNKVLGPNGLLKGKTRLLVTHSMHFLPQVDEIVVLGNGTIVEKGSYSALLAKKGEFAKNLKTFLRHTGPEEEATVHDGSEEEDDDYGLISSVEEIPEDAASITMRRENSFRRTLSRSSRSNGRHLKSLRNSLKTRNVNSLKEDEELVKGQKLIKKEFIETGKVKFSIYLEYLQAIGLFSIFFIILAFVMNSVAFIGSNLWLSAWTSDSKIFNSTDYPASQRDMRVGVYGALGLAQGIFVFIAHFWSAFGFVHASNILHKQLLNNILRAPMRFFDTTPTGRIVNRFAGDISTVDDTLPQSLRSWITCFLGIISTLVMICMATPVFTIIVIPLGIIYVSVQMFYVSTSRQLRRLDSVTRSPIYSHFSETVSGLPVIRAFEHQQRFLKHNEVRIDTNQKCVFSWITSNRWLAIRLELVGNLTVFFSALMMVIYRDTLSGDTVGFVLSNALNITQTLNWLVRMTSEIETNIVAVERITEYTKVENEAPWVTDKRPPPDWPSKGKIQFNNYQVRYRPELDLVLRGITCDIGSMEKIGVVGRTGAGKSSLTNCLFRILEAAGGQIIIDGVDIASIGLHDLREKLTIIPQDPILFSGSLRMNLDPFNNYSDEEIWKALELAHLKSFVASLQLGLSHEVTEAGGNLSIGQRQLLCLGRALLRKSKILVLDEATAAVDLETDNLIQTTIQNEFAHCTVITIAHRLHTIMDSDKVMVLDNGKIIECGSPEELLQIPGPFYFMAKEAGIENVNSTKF

MRP3 = MRP3 (Homo sapiens, UniProt O15438); assay: Transporter inhibition assay, MRP3
MRP3, sequence (O15438 whole entry): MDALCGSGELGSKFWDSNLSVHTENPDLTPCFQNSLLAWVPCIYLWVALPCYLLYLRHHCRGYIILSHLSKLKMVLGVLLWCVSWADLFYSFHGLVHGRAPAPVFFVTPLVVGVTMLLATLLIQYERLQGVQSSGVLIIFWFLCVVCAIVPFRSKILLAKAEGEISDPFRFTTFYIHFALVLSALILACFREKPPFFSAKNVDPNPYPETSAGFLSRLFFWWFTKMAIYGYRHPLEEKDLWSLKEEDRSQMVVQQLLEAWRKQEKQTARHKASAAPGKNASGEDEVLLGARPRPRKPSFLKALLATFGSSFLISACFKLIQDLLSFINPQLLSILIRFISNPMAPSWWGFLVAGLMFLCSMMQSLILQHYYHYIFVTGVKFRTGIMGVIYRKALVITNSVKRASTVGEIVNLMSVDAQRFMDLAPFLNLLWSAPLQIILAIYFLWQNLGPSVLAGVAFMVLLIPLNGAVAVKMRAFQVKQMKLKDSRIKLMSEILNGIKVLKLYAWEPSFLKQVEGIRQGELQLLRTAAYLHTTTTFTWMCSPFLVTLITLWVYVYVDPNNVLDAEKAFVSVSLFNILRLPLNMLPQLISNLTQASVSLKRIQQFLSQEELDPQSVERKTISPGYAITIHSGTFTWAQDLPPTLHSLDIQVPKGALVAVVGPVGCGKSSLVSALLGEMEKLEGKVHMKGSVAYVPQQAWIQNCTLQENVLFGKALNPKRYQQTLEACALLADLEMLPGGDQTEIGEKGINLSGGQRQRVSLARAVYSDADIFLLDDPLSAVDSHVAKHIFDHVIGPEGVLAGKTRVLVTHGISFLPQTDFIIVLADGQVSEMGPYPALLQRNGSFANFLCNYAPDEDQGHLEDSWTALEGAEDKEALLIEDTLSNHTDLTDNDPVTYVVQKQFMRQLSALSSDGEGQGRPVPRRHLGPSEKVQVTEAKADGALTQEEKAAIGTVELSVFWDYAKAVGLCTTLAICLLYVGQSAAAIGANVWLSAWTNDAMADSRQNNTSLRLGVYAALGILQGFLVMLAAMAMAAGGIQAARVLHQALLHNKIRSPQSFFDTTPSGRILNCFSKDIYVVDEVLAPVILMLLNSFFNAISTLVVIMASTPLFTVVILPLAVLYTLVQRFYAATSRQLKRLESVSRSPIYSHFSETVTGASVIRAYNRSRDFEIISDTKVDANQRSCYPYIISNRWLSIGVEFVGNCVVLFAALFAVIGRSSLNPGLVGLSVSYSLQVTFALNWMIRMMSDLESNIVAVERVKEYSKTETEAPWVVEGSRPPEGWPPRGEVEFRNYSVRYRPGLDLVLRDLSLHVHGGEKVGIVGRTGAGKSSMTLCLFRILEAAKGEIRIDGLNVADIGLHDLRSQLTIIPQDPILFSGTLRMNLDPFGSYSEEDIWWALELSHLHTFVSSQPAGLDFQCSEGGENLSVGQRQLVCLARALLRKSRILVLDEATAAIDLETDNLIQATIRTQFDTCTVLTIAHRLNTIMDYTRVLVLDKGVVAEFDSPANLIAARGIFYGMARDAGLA

OATP2B1 = target: T3, OATP2B1 (Homo sapiens, UniProt O94956); assay: Transporter inhibition assay, OATP2B1; settings: for inhibition at 100 μM: cell line (HEK293 or MDCKII) stably expressing OATP2B1
T3 sequence (O94956 1-709): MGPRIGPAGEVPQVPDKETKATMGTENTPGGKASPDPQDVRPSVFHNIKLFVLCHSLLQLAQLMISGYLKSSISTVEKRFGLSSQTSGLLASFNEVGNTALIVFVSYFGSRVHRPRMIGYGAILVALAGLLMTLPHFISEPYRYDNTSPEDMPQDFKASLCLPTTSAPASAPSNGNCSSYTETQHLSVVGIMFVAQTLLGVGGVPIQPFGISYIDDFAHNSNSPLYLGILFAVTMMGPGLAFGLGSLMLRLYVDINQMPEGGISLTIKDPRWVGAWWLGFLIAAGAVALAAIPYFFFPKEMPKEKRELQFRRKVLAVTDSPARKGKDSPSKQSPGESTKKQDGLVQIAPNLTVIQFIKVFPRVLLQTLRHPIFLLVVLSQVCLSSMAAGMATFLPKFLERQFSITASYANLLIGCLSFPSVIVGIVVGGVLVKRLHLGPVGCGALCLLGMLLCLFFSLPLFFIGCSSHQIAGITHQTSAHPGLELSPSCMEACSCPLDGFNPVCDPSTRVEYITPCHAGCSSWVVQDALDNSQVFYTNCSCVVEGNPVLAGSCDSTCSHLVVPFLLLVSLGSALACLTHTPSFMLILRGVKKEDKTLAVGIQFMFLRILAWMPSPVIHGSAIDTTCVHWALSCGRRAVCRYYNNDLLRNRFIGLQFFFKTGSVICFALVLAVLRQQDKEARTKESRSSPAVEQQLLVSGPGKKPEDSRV

BCRP = target: T4, BCRP (Homo sapiens, UniProt Q9UNQ0); assay: Vesicular transport inhibition assay, BCRP
T4 sequence (Q9UNQ0 1-655): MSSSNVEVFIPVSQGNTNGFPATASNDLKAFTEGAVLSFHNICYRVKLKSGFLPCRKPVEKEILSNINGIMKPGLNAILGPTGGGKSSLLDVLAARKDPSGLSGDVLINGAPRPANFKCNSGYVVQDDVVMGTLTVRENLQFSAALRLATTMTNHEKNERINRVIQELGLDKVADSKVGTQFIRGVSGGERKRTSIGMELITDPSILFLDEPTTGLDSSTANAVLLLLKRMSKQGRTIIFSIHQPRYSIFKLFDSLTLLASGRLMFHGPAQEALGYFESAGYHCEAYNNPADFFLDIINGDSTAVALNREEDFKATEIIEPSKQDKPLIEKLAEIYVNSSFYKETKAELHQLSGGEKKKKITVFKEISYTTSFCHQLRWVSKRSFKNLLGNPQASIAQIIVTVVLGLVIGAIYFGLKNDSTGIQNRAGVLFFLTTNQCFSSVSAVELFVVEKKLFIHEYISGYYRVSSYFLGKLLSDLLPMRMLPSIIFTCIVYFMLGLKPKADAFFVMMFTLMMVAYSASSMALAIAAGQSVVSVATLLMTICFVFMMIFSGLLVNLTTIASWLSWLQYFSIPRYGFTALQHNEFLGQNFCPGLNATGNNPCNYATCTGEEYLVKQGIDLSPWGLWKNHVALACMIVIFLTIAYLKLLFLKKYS

Row | IC50 (OAT3) [µM] | IC50 (BCRP) [µM] | Structure (SMILES) | inhibition at the highest concentration tested (NTCP) | inhibition at 100 μM (BSEP) [%] | inhibition at 100 μM (MRP2) [%] | inhibition at 100 μM (MRP3) [%] | inhibition at 100 μM (OATP2B1) [%] | IC50 (OAT3; OAT3, isolated alkaloids, mean [95% CI], three technical replicates) [µM] | inhibition at the highest concentration tested (BSEP; BSEP, alkaloids screened at 10 and 100 μM) | inhibition at the highest concentration tested (MRP2; MRP2, alkaloids screened at 10 and 100 μM) | inhibition at the highest concentration tested (MRP3; MRP3, alkaloids screened at 10 and 100 μM) | inhibition at the highest concentration tested (OATP2B1; OATP2B1, alkaloids screened at 10 and 100 μM) | IC50 (BCRP; BCRP, isolated alkaloids, mean [95% CI], three technical replicates) [µM] | inhibition at 100 μM (OAT3; cell line (HEK293 or MDCKII) stably expressing OAT3) [%] | inhibition at 100 μM (BCRP) [%]
1 | 79 | 180 | COc1ccc2cc3[n+](cc2c1OC)CCc1cc2c(cc1-3)OCO2 [Berberine, berberine chloride] | -- (inhibition not observed) | < 20 | < 20 | < 20 | < 20 |  |  |  |  |  |  |  | 
2 |  |  | COc1ccc2c(c1OC)C(=O)O[C@@H]2[C@H]1c2cc3c(cc2CCN1C)OCO3 [(−)-β-Hydrastine, (1R,9S)-(−)-β-Hydrastine] | -- (inhibition not observed) |  |  |  |  | 203 | -- (inhibition not observed) | -- (inhibition not observed) | -- (inhibition not observed) | -- (inhibition not observed) | 86.2 |  | 
3 |  |  | CN1CCc2cc3c(cc2C1O)OCO3 (stereo not drawn) [Hydrastinine, hydrastinine chloride monohydrate] | -- (inhibition not observed) | < 20 | < 20 | < 20 | < 20 |  |  |  |  |  |  | < 20 | < 20
